Test results taken from ChEMBL document CHEMBL3785092, “Synthesis and biological evaluation of novel tetrahydroisoquinoline-C-aryl glucosides as SGLT2 inhibitors for the treatment of type 2 diabetes” (Eur J Med Chem, 2016).

Molecular target: T1, Sodium/glucose cotransporter 2 (Homo sapiens) (UniProt P31639)
T1 sequence (whole entry): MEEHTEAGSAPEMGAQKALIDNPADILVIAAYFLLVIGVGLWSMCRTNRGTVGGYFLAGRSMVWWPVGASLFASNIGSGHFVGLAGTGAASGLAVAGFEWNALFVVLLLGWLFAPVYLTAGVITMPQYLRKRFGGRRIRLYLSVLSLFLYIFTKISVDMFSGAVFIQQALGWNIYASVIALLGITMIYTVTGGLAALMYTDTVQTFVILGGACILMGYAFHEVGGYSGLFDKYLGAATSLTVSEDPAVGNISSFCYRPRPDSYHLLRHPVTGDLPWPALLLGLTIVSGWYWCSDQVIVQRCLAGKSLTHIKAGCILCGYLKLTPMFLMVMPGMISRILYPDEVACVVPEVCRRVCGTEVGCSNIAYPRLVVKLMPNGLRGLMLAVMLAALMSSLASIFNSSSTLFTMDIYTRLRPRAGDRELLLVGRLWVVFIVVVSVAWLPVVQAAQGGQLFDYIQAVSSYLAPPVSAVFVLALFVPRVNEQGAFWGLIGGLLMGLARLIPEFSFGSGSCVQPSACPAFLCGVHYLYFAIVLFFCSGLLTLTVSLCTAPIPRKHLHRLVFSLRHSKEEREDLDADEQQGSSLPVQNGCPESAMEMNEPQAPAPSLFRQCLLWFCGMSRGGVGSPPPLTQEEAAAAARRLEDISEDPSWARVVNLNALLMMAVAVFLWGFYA
Experiment: Inhibition of human SGLT2 expressed in CHO cells assessed as reduction in [14C]AMG uptake at 10 uM after 1 hr by liquid scintillation counting method relative to control
Assay type: cell-based

| inhibition [%] | Structure (SMILES) |
| --- | --- |
| 85.4 | CCOc1ccc(Cc2cc([C@@H]3O[C@H](CO)[C@@H](O)[C@H](O)[C@H]3O)ccc2Cl)cc1 |
| 49.7 | OC[C@H]1O[C@@H](c2ccc3c(c2)[C@H](c2ccc4c(c2)OCO4)NCC3)[C@H](O)[C@@H](O)[C@@H]1O |
| 32.1 | COc1ccc(C[C@@H]2NCCc3ccc([C@@H]4O[C@H](CO)[C@@H](O)[C@H](O)[C@H]4O)cc32)cc1 |
